Reference: patent publication US9763938B2, “Substituted quinoxalines as positive allosteric modulators of mGluR4” (MERCK PATENT GMBH, priority 2013, dated 2017)

Target: T1, hmGluR4 (Homo sapiens, UniProt Q14833)
T1 construct: host or cells: HEK293T
Test: HEK-293 mGluR4 cells cAMP assay with EC20 L-glutamate (HTRF)
Format: cell-based
Details: positive allosteric activity at EC20 L-glutamate, 10 μM forskolin, HEK293T mGluR4 cells, read-out: hrmGluR4/HEK293T-hmGluR4 (EC50)
Method: HEK-293 mGluR4 Cells cAMP Assay with EC20 L-Glutamate
Using mGluR4 suspension cell format, 10 μM Forskolin (final conc.) used to induce the production of cAMP.
Test the positive allosteric activity of the compounds of the invention at EC20 (2.3 μM for mGluR4 and 4.3 μM for mGluR6) L-Glutamate,
cAMP dymanic2 kit is intended for the direct quantitative determination of cAMP and its principle is based on HTRF technology.
Cell Preparation: split cells at 80%-90% confluence. The following day, rinse the cells with DMEM without GlutaMax and change to Glutamine Starvation Media. Incubate overnight.
Prepare compound plate: Perform compound serial dilution (uses Matrix 4341 plate), using the Bravo liquid handling platform protocol (compound serial dilution) which adds DMSO to columns 1-24 (except cols. 3 and 13). Serial dilute compounds located in columns 3 and 13 at a 1:3 ratio; 10 points (10 ul of 3 mM compound into 20 ul DMSO). Use the Bravo liquid handling platform to transfer 1 ul from the serial dilution plate into Matrix 4314 plate to create stamp plates.
Dilute 20 mM Forskolin (in DMSO) stock solution in HBSS buffer to make a 20 uM solution (forskolin buffer; 2× solution). To the forskolin buffer, add glutamate to a concentration of 8 uM (compound dilution buffer; 2×EC20 glutamate and forskolin).
Using a multidrop, add 50 ul/well of compound dilution buffer to columns 1-22 of the 2 ul compound stamp plate. Columns 23 and 24 receive forskolin buffer containing 400 uM glutamate (EC100 glutamate; 2× solution). Columns 1 and 2 receive compound dilution buffer containing EC20 glutamate, which is the basal control. Add a glutamate dose response to row P of compound plate. Prepare the dose response by serial diluting glutamate at a 1:3 ratio in forskolin buffer starting at 2 mM glutamate (2×). Dilute the glutamate 9 times and transfer to compound plate.
Harvest cells: Rinse cells with pre-warmed HBSS-10 mM HEPES (without Ca Mg) and dissociate the cells from the flask with versene. Centrifuge the cells, remove the supernatant and suspend in pre-warmed HBSS+10 mM Hepes. Count the cells and centrifuge. Remove the supernatant and suspend the cells in HBSS+Hepes (with Ca Mg) at a density of 400,000 cells/ml.
Dispense 5 ul from the diluted compound plate into Greiner low volume cell plate using the Bravo liquid handling platform. Using a Multidrop with the small tubing cassette, dispense 5 ul of cells (2000 cells/well) onto the compounds contained in the low volume plates. Incubate the cells at 37° C., 5% CO2 for 30 minutes in the incubator.
Prepare cAMP-d2 and anti-cAMP-Crytate according to the instructions for the two step assay (see Cisbio manual) and add 10 ul of the mixed reagent to each well of the assay plate using the Multidrop. Incubate at room temperature for 60 minutes and read on the Envision plate reader using the mGluR low volume cAMP HTRF 384 well protocol. The readout is the calculated fluorescence ratio ([…]*10000).

T1 sequence (Q14833 33-912): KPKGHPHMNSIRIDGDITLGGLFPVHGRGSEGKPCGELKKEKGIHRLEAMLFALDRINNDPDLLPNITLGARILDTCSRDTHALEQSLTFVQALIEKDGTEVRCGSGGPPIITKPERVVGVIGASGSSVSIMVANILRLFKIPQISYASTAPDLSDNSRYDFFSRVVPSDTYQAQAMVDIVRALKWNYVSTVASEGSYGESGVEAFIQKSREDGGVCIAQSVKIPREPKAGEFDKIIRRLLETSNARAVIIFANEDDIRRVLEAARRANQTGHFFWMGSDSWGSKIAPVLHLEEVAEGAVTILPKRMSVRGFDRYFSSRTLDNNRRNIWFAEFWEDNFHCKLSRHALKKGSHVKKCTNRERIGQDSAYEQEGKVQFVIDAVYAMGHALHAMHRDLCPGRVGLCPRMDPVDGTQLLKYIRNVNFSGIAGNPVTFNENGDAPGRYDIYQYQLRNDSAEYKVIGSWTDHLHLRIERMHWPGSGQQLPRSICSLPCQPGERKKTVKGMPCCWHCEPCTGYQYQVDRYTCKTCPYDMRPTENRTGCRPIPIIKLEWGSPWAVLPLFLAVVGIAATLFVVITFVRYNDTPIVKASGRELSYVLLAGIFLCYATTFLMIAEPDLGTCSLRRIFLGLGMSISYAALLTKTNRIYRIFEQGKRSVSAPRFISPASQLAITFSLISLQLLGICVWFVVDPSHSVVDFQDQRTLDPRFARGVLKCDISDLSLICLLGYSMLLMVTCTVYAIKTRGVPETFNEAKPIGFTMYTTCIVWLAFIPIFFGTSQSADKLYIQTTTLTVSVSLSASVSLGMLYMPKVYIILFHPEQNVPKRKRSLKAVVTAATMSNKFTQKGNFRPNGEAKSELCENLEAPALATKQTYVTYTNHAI

| Structure (SMILES) | EC50 [nM] |
| --- | --- |
| c1ccc(-c2nc3ccccc3nc2-c2ccnc3ccccc23)cc1 [Compound 1, 2-Phenyl-3-quinolin-4-yl-quinoxaline] | < 1000 |
| Oc1ccc(-c2nc3ccccc3nc2-c2ccccc2)cc1 [Compound 2, 4-(3-Phenyl-quinoxalin-2-yl)-phenol] | < 1000 |
| OC1CCN(c2nc3ccccc3nc2-c2ccccc2)CC1 [Compound 3, 1-(3-Phenyl-quinoxalin-2-yl)-piperidin-4-ol] | < 1000 |
| Fc1ccc(-c2nc3ccccc3nc2-c2cccc3[nH]ccc23)cc1F [Compound 4, 2-(3,4-Difluoro-phenyl)-3-(1H-indol-4-yl)-quinoxaline] | 1000 to 10000 |
| Cc1cccc2nc(-c3ccccc3)c(-c3ccccc3)nc12 [Compound 5, 5-Methyl-2,3-diphenyl-quinoxaline] | 1000 to 10000 |
| c1ccc(-c2nc3ccccc3nc2-c2cccc3cccnc23)cc1 [Compound 6, 2-Phenyl-3-quinolin-8-yl-quinoxaline] | 1000 to 10000 |
| CC(=O)c1cccc2nc(-c3ccccc3)c(-c3ccccc3)nc12 [Compound 7, 1-(2,3-Diphenyl-quinoxalin-5-yl)-ethanone] | 1000 to 10000 |
| c1ccc(-c2nc3c(nc2-c2ccccc2)CCCC3)cc1 [Compound 8, 2,3-Diphenyl-5,6,7,8-tetrahydro-quinoxaline] | 1000 to 10000 |
| Fc1ccccc1-c1nc2ccccc2nc1-c1ccccc1F [Compound 9, 2,3-Bis-(2-fluoro-phenyl)-quinoxaline] | 1000 to 10000 |
| Fc1ccc(-c2nc3ccccc3nc2-c2ccccc2)cc1F [Compound 10, 2-(3,4-Difluoro-phenyl)-3-phenyl-quinoxaline] | 1000 to 10000 |
